US20220089575A1, “FARNESOID X RECEPTOR AGONISTS AND USES THEREOF” (Metacrine, Inc., priority 2017, published 2022)
Counter-ions that a name gives are not always drawn.

Target: T1, hFXR (Homo sapiens, UniProt Q96RI1)
T1 construct: expressed in transfected cells; host or cells: CV-1 cells
T1 sequence (Q96RI1 1-486): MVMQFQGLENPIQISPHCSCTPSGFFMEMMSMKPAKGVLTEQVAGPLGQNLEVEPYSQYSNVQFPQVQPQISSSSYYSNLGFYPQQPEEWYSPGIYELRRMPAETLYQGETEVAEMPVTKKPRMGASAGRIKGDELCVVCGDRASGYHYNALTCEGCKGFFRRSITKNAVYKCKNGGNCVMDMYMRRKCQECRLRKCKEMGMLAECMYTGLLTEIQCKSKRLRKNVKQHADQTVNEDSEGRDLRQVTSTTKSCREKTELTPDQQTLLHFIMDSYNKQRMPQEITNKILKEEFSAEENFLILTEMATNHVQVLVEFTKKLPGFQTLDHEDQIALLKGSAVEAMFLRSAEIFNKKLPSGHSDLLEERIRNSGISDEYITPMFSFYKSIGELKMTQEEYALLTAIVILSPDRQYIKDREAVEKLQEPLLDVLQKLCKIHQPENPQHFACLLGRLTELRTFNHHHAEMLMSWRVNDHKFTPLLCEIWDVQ
T1 sequence (P19793 1-462 partner): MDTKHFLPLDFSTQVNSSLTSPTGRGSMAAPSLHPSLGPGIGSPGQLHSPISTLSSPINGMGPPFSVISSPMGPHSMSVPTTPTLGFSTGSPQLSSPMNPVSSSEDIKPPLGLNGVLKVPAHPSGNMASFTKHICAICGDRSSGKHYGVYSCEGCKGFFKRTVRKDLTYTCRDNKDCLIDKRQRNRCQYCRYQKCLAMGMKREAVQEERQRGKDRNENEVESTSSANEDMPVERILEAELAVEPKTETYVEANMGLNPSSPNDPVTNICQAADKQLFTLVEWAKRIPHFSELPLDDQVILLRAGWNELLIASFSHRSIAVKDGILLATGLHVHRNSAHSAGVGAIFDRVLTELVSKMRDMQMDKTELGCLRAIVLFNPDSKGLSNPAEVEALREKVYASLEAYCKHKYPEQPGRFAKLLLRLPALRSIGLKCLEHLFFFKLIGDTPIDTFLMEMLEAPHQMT
Assay: In Vitro FXR Assay (TK): TK-ECRE-luc reporter in transfected CV-1 cells
Type: cell-based
Details: 18 hrs, luminescence, maximum efficacy of <25% of the Fexarmine control classified as '+'
Method in brief: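 Luciferase read-out after 18 h compound exposure of CV-1 cells carrying transfected hFXR plus hRXR expression plasmids, TK-ECRE-luc reporter and pCMX-YFP. Cells cultured in charcoal-stripped FBS before transfection; compounds serially diluted in DMSO.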

SMILES	EC50 [µM]
COc1ccc([C@H]2CC[C@H](CN(c3cccc(-c4cnn(C5CC5)c4)c3)C(=O)[C@H]3CC[C@H](OC(=O)N4CC(C[S+](C)[O-])C4)CC3)CC2)cc1C (stereo partly drawn) [Compound 8, trans-4-((3-(1-Cyclopropyl-1H-pyrazol-4-yl)phenyl)((trans-4-(4-methoxy-3-methylphenyl)cyclohexyl)methyl)carbamoyl)cyclohexyl 3-((methylsulfinyl)methyl)azetidine-1-carboxylate]	≤ 0.25
COc1ccc([C@H]2CC[C@H](CN(c3cccc(-c4cnn(C5CC5)c4)c3)C(=O)[C@H]3CC[C@H](OC(=O)N4CC(CS(C)(=O)=O)C4)CC3)CC2)cc1C [Compound 9, trans-4-((3-(1-cyclopropyl-1H-pyrazol-4-yl)phenyl)((trans-4-(4-methoxy-3-methylphenyl)cyclohexyl)methyl)carbamoyl)cyclohexyl 3-((methylsulfonyl)methyl)azetidine-1-carboxylate]	≤ 0.25
COc1ccc([C@H]2CC[C@H](CN(c3cccc(-c4cnn(C5CC5)c4)c3)C(=O)[C@H]3CC[C@H](OC(=O)[C@H]4CC[C@H](O)CC4)CC3)CC2)cc1C [Compound 10, trans-4-((3-(1-Cyclopropyl-1H-pyrazol-4-yl)phenyl)((trans-4-(4-methoxy-3-methylphenyl)cyclohexyl)methyl)carbamoyl)cyclohexyl trans-4-hydroxycyclohexanecarboxylate]	≤ 0.25
CNCCO[C@H]1CC[C@H](C(=O)N(C[C@H]2CC[C@H](c3ccc(OC)c(C)c3)CC2)c2cccc(-c3cnc(C4CC4)s3)c2)CC1 [Compound 11, trans-N-(3-(2-Cyclopropylthiazol-5-yl)phenyl)-N-((trans-4-(4-methoxy-3-methylphenyl)cyclohexyl)methyl)-4-(2-(methylamino)ethoxy) cyclohexanecarboxamide hydrochloride]	0.25 to 1
COc1ccc([C@H]2CC[C@H](CN(c3cccc(-c4cnn(C(C)C)c4)c3)C(=O)[C@H]3CC[C@H](OCC(=O)O)CC3)CC2)cc1C [Compound 12, 2-((trans-4-((3-(1-Isopropyl-1H-pyrazol-4-yl)phenyl)((trans-4-(4-methoxy-3-methylphenyl)cyclohexyl)methyl)carbamoyl)cyclohexyl)oxy)acetic acid]	≤ 0.25
COc1ncc(-c2cccc(N(C[C@H]3CC[C@H](c4ccc(OC)c(C)c4)CC3)C(=O)[C@H]3CC[C@H](OC(=O)N(C)C)CC3)c2)s1 [Compound 13, trans-4-(((trans-4-(4-Methoxy-3-methylphenyl)cyclohexyl)methyl)(3-(2-methoxythiazol-5-yl)phenyl)carbamoyl)cyclohexyl dimethylcarbamate]	≤ 0.25

Now from value to compound:

EC50 [µM]	SMILES
≤ 0.25	CCC1CN(C(=O)O[C@H]2CC[C@H](C(=O)N(C[C@H]3CC[C@H](c4ccc(OC)c(C)n4)CC3)c3cc(-c4coc(C(C)C)n4)ccn3)CC2)C1 [Compound 7.100, trans-4-((4-(2-Isopropyloxazol-4-yl)pyridine-2-yl)((trans-4-(5-methoxy-6-methylpyridin-2-yl)cyclohexyl)methyl)carbamoyl)cyclohexyl 3-ethylazetidine-1-carboxylate]
≤ 0.25	COc1ccc([C@H]2CC[C@H](CN(c3cc(-c4coc(C5CC5)n4)ccn3)C(=O)[C@H]3CC[C@H](OC(=O)N4CC(CS(C)(=O)=O)C4)CC3)CC2)nc1C [Compound 7.101, trans-4-((4-(2-Cyclopropyloxazol-4-yl)pyridine-2-yl)((trans-4-(5-methoxy-6-methylpyridin-2-yl)cyclohexyl)methyl)carbamoyl)cyclohexyl 3-((methylsulfonyl)methyl)azetidine-1-carboxylate]
≤ 0.25	COc1ccc([C@H]2CC[C@H](CN(c3cc(-c4coc(C5CC5)n4)ccn3)C(=O)[C@H]3CC[C@H](OC(=O)N4CC(C(C)C)C4)CC3)CC2)nc1C [Compound 7.102, trans-4-((4-(2-Cyclopropyloxazol-4-yl)pyridine-2-yl)((trans-4-(5-methoxy-6-methylpyridin-2-yl)cyclohexyl)methyl)carbamoyl)cyclohexyl 3-isopropylazetidine-1-carboxylate]
≤ 0.25	COc1ccc([C@H]2CC[C@H](CN(c3cc(-c4coc(C5CC5)n4)ccn3)C(=O)[C@H]3CC[C@H](OC(=O)N4CC(C(C)(C)C)C4)CC3)CC2)nc1C [Compound 7.103, trans-4-((4-(2-Cyclopropyloxazol-4-yl)pyridine-2-yl)((trans-4-(5-methoxy-6-methylpyridin-2-yl)cyclohexyl)methyl)carbamoyl)cyclohexyl 3-(tert-butyl)azetidine-1-carboxylate]
≤ 0.25	CCCOC1CN(C(=O)O[C@H]2CC[C@H](C(=O)N(C[C@H]3CC[C@H](c4ccc(OC)c(C)n4)CC3)c3cc(-c4coc(C5CC5)n4)ccn3)CC2)C1 [Compound 7.104, trans-4-((4-(2-Cyclopropyloxazol-4-yl)pyridine-2-yl)((trans-4-(5-methoxy-6-methylpyridin-2-yl)cyclohexyl)methyl)carbamoyl)cyclohexyl 3-propoxyazetidine-1-carboxylate]
≤ 0.25	CCCC1CN(C(=O)O[C@H]2CC[C@H](C(=O)N(C[C@H]3CC[C@H](c4ccc(OC)c(C)n4)CC3)c3cc(-c4coc(C5CC5)n4)ccn3)CC2)C1 [Compound 7.105, trans-4-((4-(2-Cyclopropyloxazol-4-yl)pyridin-2-yl)((trans-4-(5-methoxy-6-methylpyridin-2-yl)cyclohexyl)methyl)carbamoyl)cyclohexyl 3-propylazetidine-1-carboxylate]
≤ 0.25	COc1ccc([C@H]2CC[C@H](CN(c3cc(-c4coc(C5CC5)n4)ccn3)C(=O)[C@H]3CC[C@H](OC(=O)N4CC(CN(C)C)C4)CC3)CC2)nc1C [Compound 7.106, trans-4-((4-(2-Cyclopropyloxazol-4-yl)pyridin-2-yl)((trans-4-(5-methoxy-6-methylpyridin-2-yl)cyclohexyl)methyl)carbamoyl)cyclohexyl 3-((dimethylamino)methyl)azetidine-1-carboxylate]
≤ 0.25	COc1ccc([C@H]2CC[C@H](CN(c3cc(-c4coc(C5CC5)n4)ccn3)C(=O)[C@H]3CC[C@H](OC(=O)N4CCOC(C)C4)CC3)CC2)nc1C (stereo partly drawn) [Compound 7.107, trans-4-((4-(2-Cyclopropyloxazol-4-yl)pyridin-2-yl)((trans-4-(5-methoxy-6-methylpyridin-2-yl)cyclohexyl)methyl)carbamoyl)cyclohexyl 2-methylmorpholine-4-carboxylate]
≤ 0.25	COc1ccc([C@H]2CC[C@H](CN(c3cc(-c4coc(C5CC5)n4)ccn3)C(=O)[C@H]3CC[C@H](OC(=O)N4CC(N5CC(O)C5)C4)CC3)CC2)nc1C [Compound 7.108, trans-4-((4-(2-Cyclopropyloxazol-4-yl)pyridin-2-yl)((trans-4-(5-methoxy-6-methylpyridin-2-yl)cyclohexyl)methyl)carbamoyl)cyclohexyl 3-hydroxy-[1,3′-biazetidine]-1′-carboxylate]
≤ 0.25	CCc1nc(-c2ccnc(N(C[C@H]3CC[C@H](c4ccc(OC)c(C)n4)CC3)C(=O)[C@H]3CC[C@H](OC(=O)N4CC(O)C4)CC3)c2)co1 [Compound 7.109, trans-4-((4-(2-Ethyloxazol-4-yl)pyridin-2-yl)((trans-4-(5-methoxy-6-methylpyridin-2-yl)cyclohexyl)methyl)carbamoyl)cyclohexyl 3-hydroxyazetidine-1-carboxylate]
≤ 0.25	COc1ccc([C@H]2CC[C@H](CN(c3cccc(-c4cnn(C5CC5)c4)c3)C(=O)[C@H]3CC[C@H](OC(=O)N4CC([S+](C)[O-])C4)CC3)CC2)cc1C (stereo partly drawn) [Compound 8.01, trans-4-((3-(1-Cyclopropyl-1H-pyrazol-4-yl)phenyl)((trans-4-(4-methoxy-3-methylphenyl)cyclohexyl)methyl)carbamoyl)cyclohexyl 3-(methylsulfinyl)azetidine-1-carboxylate]
≤ 0.25	COCCO[C@H]1CC[C@H](C(=O)N(C[C@H]2CC[C@H](c3ccc(OC)c(C)c3)CC2)c2cccc(-c3cnc(OC)s3)c2)CC1 [Compound 13.01, trans-N-((trans-4-(4-Methoxy-3-methylphenyl)cyclohexyl)methyl)-4-(2-methoxyethoxy)-N-(3-(2-methoxythiazol-5-yl)phenyl) cyclohexanecarboxamide]
≤ 0.25	COCCCO[C@H]1CC[C@H](C(=O)N(C[C@H]2CC[C@H](c3ccc(OC)c(C)c3)CC2)c2cccc(-c3cnc(OC)s3)c2)CC1 [Compound 13.02, trans-N-((trans-4-(4-Methoxy-3-methylphenyl)cyclohexyl)methyl)-4-(3-methoxypropoxy)-N-(3-(2-methoxythiazol-5-yl)phenyl) cyclohexanecarboxamide]
